These are literature values, as cited in patent US20200215022A1, “NOVEL CANNABINOID COMPOSITIONS AND METHODS OF TREATING PEDIATRIC EPILEPSY” (TILRAY, INC., priority 2016, published 2020).

For data set [1] the following is noted: in vivo.
Another data set has as its target CB2 (Homo sapiens, UniProt P34972). As to conditions: Pacher et al., 2006.
The subject of another data set is sodium channel. The following applies: human and animal models.
The target of a further data set is CYP2C19 (Homo sapiens, UniProt P33261).
Chain of CYP2C19 (P33261 whole entry): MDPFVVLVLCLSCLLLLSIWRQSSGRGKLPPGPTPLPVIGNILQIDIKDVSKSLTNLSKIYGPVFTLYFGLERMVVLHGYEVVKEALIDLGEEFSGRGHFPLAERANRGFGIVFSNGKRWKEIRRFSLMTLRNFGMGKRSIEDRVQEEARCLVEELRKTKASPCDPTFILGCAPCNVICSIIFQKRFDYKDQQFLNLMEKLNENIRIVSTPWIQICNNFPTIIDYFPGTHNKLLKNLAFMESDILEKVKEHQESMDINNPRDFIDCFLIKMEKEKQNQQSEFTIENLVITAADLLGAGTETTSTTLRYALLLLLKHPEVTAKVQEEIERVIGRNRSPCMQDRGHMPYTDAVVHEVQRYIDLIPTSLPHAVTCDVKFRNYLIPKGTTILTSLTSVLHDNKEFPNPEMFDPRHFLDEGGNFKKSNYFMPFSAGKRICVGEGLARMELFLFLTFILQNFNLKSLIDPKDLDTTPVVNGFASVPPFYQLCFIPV
The next data set concerns the target CYP2C9 (Homo sapiens, UniProt P11712).
The target of a further data set is T1, CYP2B6 (Homo sapiens, UniProt P20813).
T1 sequence (P20813 1-491): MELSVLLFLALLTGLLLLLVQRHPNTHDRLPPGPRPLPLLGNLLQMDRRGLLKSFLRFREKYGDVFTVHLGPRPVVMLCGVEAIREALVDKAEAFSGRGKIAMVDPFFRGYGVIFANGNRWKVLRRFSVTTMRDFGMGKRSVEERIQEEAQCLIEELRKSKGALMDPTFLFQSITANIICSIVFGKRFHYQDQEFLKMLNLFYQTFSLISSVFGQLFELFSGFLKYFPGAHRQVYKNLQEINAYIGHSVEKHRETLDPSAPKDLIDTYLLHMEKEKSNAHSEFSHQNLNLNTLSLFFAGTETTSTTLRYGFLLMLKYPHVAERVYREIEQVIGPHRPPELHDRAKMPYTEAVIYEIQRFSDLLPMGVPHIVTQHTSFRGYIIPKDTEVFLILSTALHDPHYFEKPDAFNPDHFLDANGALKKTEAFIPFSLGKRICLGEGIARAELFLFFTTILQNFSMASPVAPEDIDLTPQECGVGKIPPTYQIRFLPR

For a further data set, the target named is CYP3A4 (Homo sapiens, UniProt P08684).
Chain of CYP3A4 (P08684 whole entry): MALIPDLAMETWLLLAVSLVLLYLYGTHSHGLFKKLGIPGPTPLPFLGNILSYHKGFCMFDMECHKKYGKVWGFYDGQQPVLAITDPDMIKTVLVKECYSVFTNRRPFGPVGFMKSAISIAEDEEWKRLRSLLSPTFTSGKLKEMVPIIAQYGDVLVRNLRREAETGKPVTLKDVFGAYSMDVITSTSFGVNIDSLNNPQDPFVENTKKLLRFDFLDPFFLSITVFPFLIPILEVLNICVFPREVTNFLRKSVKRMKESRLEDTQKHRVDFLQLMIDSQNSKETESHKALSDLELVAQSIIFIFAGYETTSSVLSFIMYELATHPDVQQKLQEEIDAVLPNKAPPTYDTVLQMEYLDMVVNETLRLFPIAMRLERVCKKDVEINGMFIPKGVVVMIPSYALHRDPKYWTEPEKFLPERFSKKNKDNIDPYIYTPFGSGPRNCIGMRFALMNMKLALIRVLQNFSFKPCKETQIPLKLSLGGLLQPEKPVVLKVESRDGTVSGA
Another data set concerns the target T2, CYP2C8 (Homo sapiens, UniProt P10632).
T2 sequence (P10632 1-490): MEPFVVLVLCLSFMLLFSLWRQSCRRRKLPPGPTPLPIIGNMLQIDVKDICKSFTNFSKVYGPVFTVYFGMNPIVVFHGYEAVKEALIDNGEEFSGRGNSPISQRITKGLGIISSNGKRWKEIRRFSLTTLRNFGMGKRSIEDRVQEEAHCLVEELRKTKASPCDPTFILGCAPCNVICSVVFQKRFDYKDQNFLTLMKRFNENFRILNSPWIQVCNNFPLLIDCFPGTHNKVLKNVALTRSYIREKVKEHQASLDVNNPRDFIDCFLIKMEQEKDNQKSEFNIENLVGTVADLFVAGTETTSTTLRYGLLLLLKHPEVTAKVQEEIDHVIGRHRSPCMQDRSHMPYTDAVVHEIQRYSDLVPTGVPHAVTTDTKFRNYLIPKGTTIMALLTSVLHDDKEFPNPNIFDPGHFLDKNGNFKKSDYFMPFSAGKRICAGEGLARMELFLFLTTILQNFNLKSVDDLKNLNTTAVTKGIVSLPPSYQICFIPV

Chain of CB2 (P34972 whole entry, species assumed): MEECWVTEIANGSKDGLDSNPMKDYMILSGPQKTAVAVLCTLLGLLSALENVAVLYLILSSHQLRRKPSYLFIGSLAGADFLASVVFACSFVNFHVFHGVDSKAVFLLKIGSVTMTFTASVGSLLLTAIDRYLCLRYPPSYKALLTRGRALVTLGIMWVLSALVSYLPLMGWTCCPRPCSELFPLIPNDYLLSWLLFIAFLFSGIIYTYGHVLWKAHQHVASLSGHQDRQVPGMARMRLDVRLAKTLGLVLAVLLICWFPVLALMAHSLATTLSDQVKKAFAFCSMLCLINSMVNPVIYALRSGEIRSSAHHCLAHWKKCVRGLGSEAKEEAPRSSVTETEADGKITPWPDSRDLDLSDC
Chain of CYP2C9 (P11712 whole entry): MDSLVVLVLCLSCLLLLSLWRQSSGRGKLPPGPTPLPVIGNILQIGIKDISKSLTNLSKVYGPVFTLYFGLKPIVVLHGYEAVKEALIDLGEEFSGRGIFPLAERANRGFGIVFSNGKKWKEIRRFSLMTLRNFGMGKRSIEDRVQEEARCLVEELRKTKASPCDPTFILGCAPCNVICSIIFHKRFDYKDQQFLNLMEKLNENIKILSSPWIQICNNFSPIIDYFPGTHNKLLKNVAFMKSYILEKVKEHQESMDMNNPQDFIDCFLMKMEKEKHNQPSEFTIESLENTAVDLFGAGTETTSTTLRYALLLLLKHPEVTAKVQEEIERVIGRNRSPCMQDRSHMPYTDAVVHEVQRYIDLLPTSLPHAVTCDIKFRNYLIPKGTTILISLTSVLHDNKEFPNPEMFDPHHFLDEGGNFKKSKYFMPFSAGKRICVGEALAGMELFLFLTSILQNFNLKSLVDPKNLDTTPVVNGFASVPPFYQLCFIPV

`C=C(C)[C@@H]1CCC(C)=C[C@H]1c1c(O)cc(CCCCC)cc1O` [CBD, cannabidiol]: the Lipid solubility result was “highly lipid soluble”. In data set [1], the Route of excretion entry was “excreted in the urine and feces”; the “Time CBD levels are detected post administration” value was “up to 8 hours”. Moreover, the “Affinity for cannabinoid receptor CB2” value on CB2 was “does not appear to have a great affinity”. Also, the Sodium channel block entry in the data set with sodium channel is reported as “potent sodium channel blockers”. Besides, at CYP2C19, the “Inhibition of CYP2C19” value is “potent inhibitor”. The “Inhibition of CYP2C9” value on CYP2C9 was “potent inhibitor”. Besides, the “Inhibition of CYP2B6” value at CYP2B6 was “potent inhibitor”. Also, on CYP3A4, the “Inhibition of CYP3A4” value is recorded as “potent inhibitor”. Also, at CYP2C8, the “Inhibition of CYP2C8” value was “potent inhibitor”.

In the case of `CCCCCc1cc(O)c(C/C=C(\C)CCC=C(C)C)c(O)c1` [CBG, cannabigerol], the Sodium channel block result with sodium channel is recorded as “potent sodium channel blockers”.
